This passage reports IC50 results from patent US12540141B2, “Spiropyrrolidine derived antiviral agents” (priority 2020, dated 2026).

Some results are limits rather than exact numbers.

A word on the IC50: it is the concentration at which inhibition is half-maximal. A lower IC50 goes with greater potency.

In the experiment the target is SARS-CoV-2 3CL-protease (Severe acute respiratory syndrome coronavirus 2, UniProt P0DTD1). In words: SARS-CoV-2 3C-Like (3CL) Protease Fluorescence Assay (FRET). Type of experiment: biochemical. To be noted: SARS-CoV-2 3CL-protease 10 nM, 30 min preincubation at RT, substrate 40 μM.

`CN(C(=O)c1cn(C2CC2)nn1)[C@@H](Cc1ccccc1)C(=O)N1C[C@]2(C[C@H]1C#N)C(=O)Nc1ccccc12` [Example 359] gave an IC50 of less than 100 nM.
For `CN(C(=O)c1ccn(CC(F)(F)F)n1)[C@@H](Cc1ccccc1)C(=O)N1C[C@]2(C[C@H]1C#N)C(=O)Nc1ccccc12` [Example 360], the half-inhibitory concentration (IC50) was less than 100 nM.
Under `CN(C(=O)c1ccn(C2CC2)n1)[C@@H](Cc1ccccc1)C(=O)N1C[C@]2(C[C@H]1C#N)C(=O)Nc1ccccc12` [Example 361] stands less than 100 nM; under `CN(C(=O)c1cn(CC(F)(F)F)nn1)[C@@H](Cc1ccccc1)C(=O)N1C[C@]2(C[C@H]1C#N)C(=O)Nc1ccccc12` [Example 362], less than 100 nM.
Turning to `CN(C(=O)c1cn(C(C)(C)C)nn1)[C@@H](Cc1ccccc1)C(=O)N1C[C@]2(C[C@H]1C#N)C(=O)Nc1ccccc12` [Example 363], the IC50 is less than 100 nM.
Molecule `CC(C)C[C@@H](C(=O)N1C[C@]2(C[C@H]1C#N)C(=O)Nc1ccccc12)N(C)C(=O)CC1CC1` [Example 364] displayed an IC50 of less than 100 nM.
As to `CC(C)C[C@@H](C(=O)N1C[C@]2(C[C@H]1C#N)C(=O)Nc1ccccc12)N(C)C(=O)c1cn(C2CCC2)nn1` [Example 365], the IC50 was less than 100 nM.
`CC(C)C[C@@H](C(=O)N1C[C@]2(C[C@H]1C#N)C(=O)Nc1ccccc12)N(C)C(=O)CCNC(=O)OC(C)(C)C` [Example 366]: the IC50 is less than 100 nM.
Under `CC(C)C[C@@H](C(=O)N1C[C@]2(C[C@H]1C#N)C(=O)Nc1ccccc12)N(C)C(=O)CCN` [Example 367] stands less than 100 nM.
`CC(C)C[C@@H](C(=O)N1C[C@]2(C[C@H]1C#N)C(=O)Nc1ccccc12)N(C)C(=O)CCNC(=O)c1ccc(F)cc1F` [Example 368] gave an IC50 of less than 100 nM.
Under `COc1cccc2[nH]c(C(=O)N(C)[C@@H](COC(C)(C)C)C(=O)N3C[C@]4(C[C@H]3C#N)C(=O)Nc3ccccc34)cc12` [Example 370] stands less than 100 nM; under `CN(C(=O)c1cc2c(F)cc(F)cc2[nH]1)[C@@H](COC(C)(C)C)C(=O)N1C[C@]2(C[C@H]1C#N)C(=O)Nc1ccccc12` [Example 371], less than 100 nM.
`C[C@@H](C(=O)N(C)[C@@H](CC(C)(C)C)C(=O)N1C[C@]2(C[C@H]1C#N)C(=O)Nc1ccccc12)c1cnn(C)c1` [Example 372] returned a concentration for half-maximal inhibition (IC50) of less than 100 nM.
`C[C@H](C(=O)N(C)[C@@H](CC(C)(C)C)C(=O)N1C[C@]2(C[C@H]1C#N)C(=O)Nc1ccccc12)c1cnn(C)c1` [Example 373] registered a half-inhibitory concentration (IC50) of less than 100 nM.
Under `CN(C(=O)C(F)(F)F)[C@@H](CC(C)(C)C)C(=O)N1C[C@]2(C[C@H]1C#N)C(=O)Nc1ccccc12` [Example 374] stands 100 to 1000 nM; under `CN(C(=O)c1cc2c(OC3CC3)cccc2[nH]1)[C@@H](CC(C)(C)C)C(=O)N1C[C@]2(C[C@H]1C#N)C(=O)Nc1ccccc12` [Example 375], less than 100 nM.
Under `[2H]C([2H])([2H])N(C(=O)c1nc(-c2ccccc2)c[nH]1)[C@@H](CC(C)(C)C)C(=O)N1C[C@]2(C[C@H]1C#N)C(=O)Nc1ccccc12` [Example 376] stands less than 100 nM.
In turn, `[2H]C([2H])([2H])N(C(=O)c1cn(-c2ccc(Cl)cc2)nn1)[C@@H](CC(C)(C)C)C(=O)N1C[C@]2(C[C@H]1C#N)C(=O)Nc1ccccc12` [Example 377] showed an IC50 of less than 100 nM.
Under `[2H]C([2H])([2H])N(C(=O)c1cn(C2CC2)nn1)[C@@H](CC(C)(C)C)C(=O)N1C[C@]2(C[C@H]1C#N)C(=O)Nc1ccccc12` [Example 378] stands less than 100 nM; under `[2H]C([2H])([2H])N(C(=O)c1cn(C2CCC2)nn1)[C@@H](CC(C)(C)C)C(=O)N1C[C@]2(C[C@H]1C#N)C(=O)Nc1ccccc12` [Example 379], less than 100 nM; under `[2H]C([2H])([2H])N(C(=O)c1cn(CC(F)(F)F)nn1)[C@@H](CC(C)(C)C)C(=O)N1C[C@]2(C[C@H]1C#N)C(=O)Nc1ccccc12` [Example 380], less than 100 nM.
Under `[2H]C([2H])([2H])N(C(=O)c1ccc2ncc(C(F)(F)F)cc2c1)[C@@H](CC(C)(C)C)C(=O)N1C[C@]2(C[C@H]1C#N)C(=O)Nc1ccccc12` [Example 381] stands less than 100 nM; under `[2H]C([2H])([2H])N(C(=O)c1cc(OC(F)(F)F)c2ncccc2c1)[C@@H](CC(C)(C)C)C(=O)N1C[C@]2(C[C@H]1C#N)C(=O)Nc1ccccc12` [Example 382], less than 100 nM.
In turn, `[2H]C([2H])([2H])N(C(=O)c1cc(OC(F)F)c2ncccc2c1)[C@@H](CC(C)(C)C)C(=O)N1C[C@]2(C[C@H]1C#N)C(=O)Nc1ccccc12` [Example 383] yielded an IC50 of less than 100 nM.
As for `CCCC[C@@H](C(=O)N1C[C@]2(C[C@H]1C#N)C(=O)Nc1ccccc12)N(C)C(=O)c1cc2c(F)cc(F)cc2[nH]1` [Example 384], the IC50 is less than 100 nM.
Consider `CC[C@@H](C(=O)N1C[C@]2(C[C@H]1C#N)C(=O)Nc1ccccc12)N(C)C(=O)c1cc2c(F)cc(F)cc2[nH]1` [Example 385], for which the IC50 lay within 100 to 1000 nM.
The result for `CCC[C@@H](C(=O)N1C[C@]2(C[C@H]1C#N)C(=O)Nc1ccccc12)N(C)C(=O)c1cc2c(F)cc(F)cc2[nH]1` [Example 386] reads less than 100 nM; that for `CN(C(=O)OCc1ccccc1)[C@@H](Cc1ccc(OCc2ccccc2)cc1)C(=O)N1C[C@]2(C[C@H]1C#N)C(=O)Nc1ccccc12` [Example 387], more than 1000 nM; that for `CN(C(=O)c1cc2c(F)cc(F)cc2[nH]1)[C@@H](Cc1cccc(F)c1)C(=O)N1C[C@]2(C[C@H]1C#N)C(=O)Nc1ccccc12` [Example 389], less than 100 nM.
On to `[2H]C([2H])([2H])N(C(=O)c1cn(C2CCC2)nn1)[C@@H](Cc1ccc(F)cc1)C(=O)N1C[C@]2(C[C@H]1C#N)C(=O)Nc1ccccc12` [Example 390], for which the IC50 is less than 100 nM.
Under `[2H]C([2H])([2H])N(C(=O)c1cn(C2CC2)nn1)[C@@H](Cc1ccc(F)cc1)C(=O)N1C[C@]2(C[C@H]1C#N)C(=O)Nc1ccccc12` [Example 391] stands less than 100 nM; under `[2H]C([2H])([2H])N(C(=O)c1cn(C2CCC2)nn1)[C@@H](CCCC)C(=O)N1C[C@]2(C[C@H]1C#N)C(=O)Nc1ccccc12` [Example 392], less than 100 nM.
`[2H]C([2H])([2H])N(C(=O)c1cn(C(C)(C)C)nn1)[C@@H](CCCC)C(=O)N1C[C@]2(C[C@H]1C#N)C(=O)Nc1ccccc12` [Example 393] displayed an IC50 of less than 100 nM.
Under `[2H]C([2H])([2H])N(C(=O)c1cnn(CC(F)(F)F)c1)[C@@H](CC1CC1)C(=O)N1C[C@]2(C[C@H]1C#N)C(=O)Nc1ccccc12` [Example 395] stands less than 100 nM; under `[2H]C([2H])([2H])N(C(=O)c1cnn(-c2ccc(C(F)(F)F)cc2)c1)[C@@H](CC1CC1)C(=O)N1C[C@]2(C[C@H]1C#N)C(=O)Nc1ccccc12` [Example 396], less than 100 nM.
Take `[2H]C([2H])([2H])N(C(=O)c1nnn2ccccc12)[C@@H](CCCC)C(=O)N1C[C@]2(C[C@H]1C#N)C(=O)Nc1ccccc12` [Example 397]: the IC50 was less than 100 nM.
The molecule `[2H]C([2H])([2H])N(C(=O)c1cnn2cc(Cl)ccc12)[C@@H](CCCC)C(=O)N1C[C@]2(C[C@H]1C#N)C(=O)Nc1ccccc12` [Example 398] returned a half-maximal inhibitory concentration (IC50) of less than 100 nM.
For `[2H]C([2H])([2H])N(C(=O)c1cnn(C(C)(C)C)c1C(F)(F)F)[C@@H](CC1CC1)C(=O)N1C[C@]2(C[C@H]1C#N)C(=O)Nc1ccccc12` [Example 400], the IC50 is less than 100 nM.
